Test results: patent publication US12550899B2, “Topramezone derivative and use thereof” (priority 2023, dated 2026)

Columns and labels:
Assay type in all cases: in vivo
[1] = system: Abutilon theophrasti medicus; experiment: Laboratory bioactivity efficacy test 2.2 (foliar spray); conditions: for Visual observation of weeds: 3 to 7 days after application, broadleaf weeds like Abutilon theophrasti medicus; for GR50 (95% confidence interval) / GR90 (95% confidence interval): fresh weight control efficacy 20 days post-application
Method: (§1) • grassy weeds: Digitaria sanguinalis, Eleusine indica, Echinochloa crusgalli; • Broadleaf weeds: Portulaca oleracea, Abutilon theophrasti medicus. 2.2.2 Test Conditions
(§2) The soil used for the test was a mixture of surface 20 cm loam and vermiculite, mixed in a volume ratio of 3:1 to form a culture soil. The test weeds were cultured in a glass greenhouse with a temperature ranging from 25° C. to 35° C. and under natural light.
(§3) Quantified seeds of Digitaria sanguinalis, Eleusine indica, Echinochloa crusgalli, Portulaca oleracea, and Abutilon theophrasti medicus were sown in plastic pots with a diameter of 9 cm, and covered with 1-2 mm of soil. The ports were then placed in enamel trays filled with water, and watered by bottom irrigation. After the water seeped to the soil surface, the pots were transferred to the glass greenhouse for standby.
(§4) Five dosages were set for Compound I, Compound II and the control herbicide Topramezone, which were 3.75, 7.5, 15, 30 and 60 grams of active ingredient per hectare respectively. In addition, a blank control was also prepared.
(§5) The required amount of the herbicide was accurately measured out and directly added with water, which was diluted to the required dosage by using the serial dilution method for standby.
(§6) The test was conducted on grassy weeds at the two-leaf and one-heart stage, Abutilon theophrasti medicus at the 2-true-leaf stage, and Portulaca oleracea at the 3-5-leaf stage, with the stems and leaves both sprayed uniformly. The ASS-4 automatic control spraying system with a fan-shaped nozzle was used indoors for herbicide application. Depending on the nozzle pressure and flow rate, 50 mL of herbicide solution was applied to a spraying area of 1.1 m^2 (which was equivalent to the water consumption of 30 L per mu). The system's operating speed was calibrated. The plastic pots to be treated were arranged evenly on the spraying platform to ensure uniform treatment. The spray pressure was set to 0.35 MPa, and the flow rate of the fan-shaped nozzle was set to 800 mL/min. The spraying was carried out in sequence from the low dosage to the high dosage. Each treatment was repeated two to four times.
(§7) The herbicide was applied once. After spraying, the pots were air-dried for one day and then placed in the glass greenhouse. Regular watering was conducted to maintain moisture.
(§8) The damage symptoms of the weeds (such as growth inhibition, chlorosis, malformation, etc.) were carefully recorded at 3, 7, 10, and 20 days after herbicide application. A visual comparison of the herbicide effectiveness was made. At 20 days post-application, the fresh weight of the aboveground parts of the weeds from each treatment group was measured, and the fresh weight control efficacy was calculated.
(§9) The treatment results were calculated according to the following formula: weed fresh weight control efficacy (%)=(control fresh weight−treatment fresh weight)/control fresh weight×100.
(§10) A DPS statistical software was used to conduct regression analysis on the logarithmic values of the herbicide dosage and the probit values of the weed fresh weight control efficacy, and the correlation coefficient, GR50, GR90, and the 95% confidence interval were calculated.

Digitaria sanguinalis = experiment: as above; conditions: fresh weight control efficacy 20 days post-application
Method: as §1, §2, §3, §4, §5, §6, §7, §8, §9, §10

Echinochloa crusgalli = experiment: as above; conditions: fresh weight control efficacy 20 days post-application
Method: as §1, §2, §3, §4, §5, §6, §7, §8, §9, §10

Eleusine indica = experiment: as above; conditions: fresh weight control efficacy 20 days post-application
Method: as §1, §2, §3, §4, §5, §6, §7, §8, §9, §10

Portulaca oleracea = experiment: as above; conditions: for GR50 (95% confidence interval) / GR90 (95% confidence interval): fresh weight control efficacy 20 days post-application
Method: as §1, §2, §3, §4, §5, §6, §7, §8, §9, §10

Corn (Sweet Corn) = experiment: Corn safety laboratory test; conditions: for Fresh Weight / Fresh Weight Control Efficacy: 15 days after application
Method: (§11) Three corn varieties: Zhengdan 958, white waxy corn, and sweet corn (Runhua sweet corn).
(§12) The soil used for the test was a mixture of surface 20 cm loam and vermiculite, mixed in a volume ratio of 3:1 to form a culture soil. The test corn was cultured in a glass greenhouse with a temperature ranging from 25° C. to 35° C. and under natural light.
(§13) A measured quantity of corn seeds were sown in plastic pots with a diameter of 15 cm, and covered with 2-3 cm of soil. The ports were then placed in enamel trays filled with water, and watered by bottom irrigation. After sowing, the pots were transferred to the glass greenhouse for cultivation and growth.
(§14) In the corn safety test, dosages were set for the two Compounds (Compound I of the present invention and Compound II of the present invention) and the control herbicide Topramezone, which were 15, 30, 60, and 120 grams of active ingredient per hectare respectively. In addition, a blank control was also prepared.
(§15) The required amount of the herbicide was accurately measured out, an appropriate amount of emulsifier and organic solvent were added to dissolve the herbicide, and then a certain amount of water was added therein until the herbicide was diluted to the required dosage by using the serial dilution method for standby.
(§16) Corn stems and leaves were uniformly sprayed at the 3-4-leaf stage.
as §6, with “ASS-3” for “test was conducted on grassy weeds at the two-leaf and one-heart stage, Abutilon theophrasti medicus at the 2-true-leaf stage, and Portulaca oleracea at the 3-5-leaf stage, with the stems and leaves both sprayed uniformly. The ASS-4”, “three” for “two to four”
as §7
(§17) After application of the herbicide, whether there were any phytotoxic symptoms in the corn for each treatment was recorded. If yes, the phytotoxicity symptoms and grade were recorded in detail. 15 days after application, the fresh weight of the corn in each treatment was measured and the fresh weight control efficacy was calculated to assess the safety of the herbicide on the corn.
(§18) The treatment results were calculated according to the following formula: fresh weight control efficacy (%)=(control fresh weight−treatment fresh weight)/control fresh weight×100.

Corn (White Waxy Corn) = experiment: Corn safety laboratory test; conditions: for Fresh Weight / Fresh Weight Control Efficacy: 15 days after application
Method: as §11, §12, §13, §14, §15, §16
as §6, with “ASS-3” for “test was conducted on grassy weeds at the two-leaf and one-heart stage, Abutilon theophrasti medicus at the 2-true-leaf stage, and Portulaca oleracea at the 3-5-leaf stage, with the stems and leaves both sprayed uniformly. The ASS-4”, “three” for “two to four”
as §7, §17, §18

Corn (Zhengdan 958) = experiment: Corn safety laboratory test; conditions: for Fresh Weight / Fresh Weight Control Efficacy: 15 days after application
Method: as §11, §12, §13, §14, §15, §16
as §6, with “ASS-3” for “test was conducted on grassy weeds at the two-leaf and one-heart stage, Abutilon theophrasti medicus at the 2-true-leaf stage, and Portulaca oleracea at the 3-5-leaf stage, with the stems and leaves both sprayed uniformly. The ASS-4”, “three” for “two to four”
as §7, §17, §18

[2] = Sweet Corn, dosage 15 g a.i./ha
[3] = Sweet Corn, dosage 30 g a.i./ha
[4] = Sweet Corn, dosage 60 g a.i./ha
[5] = Sweet Corn, dosage 120 g a.i./ha
[6] = White Waxy Corn, dosage 15 g a.i./ha
[7] = White Waxy Corn, dosage 30 g a.i./ha
[8] = White Waxy Corn, dosage 60 g a.i./ha
[9] = White Waxy Corn, dosage 120 g a.i./ha
[10] = Zhengdan 958, dosage 15 g a.i./ha
[11] = Zhengdan 958, dosage 30 g a.i./ha
[12] = Zhengdan 958, dosage 60 g a.i./ha
[13] = Zhengdan 958, dosage 120 g a.i./ha

## Cc1c(C(=O)c2cnn(C)c2O)ccc(S(C)(=O)=O)c1C1=NOCC1 [Topramezone]
[1]
  Visual observation of weeds: directly dried up and died
[1]; Abutilon theophrasti Medicago
  GR50 (95% confidence interval): 2.02 (0.77-3.38) g a.i./ha
  GR90 (95% confidence interval): 8.83 (6.22-11.10) g a.i./ha
Digitaria sanguinalis
  GR50: 10.09 g a.i./ha
  GR90: 36.27 g a.i./ha
Echinochloa crusgalli
  GR50: 6.52 g a.i./ha
  GR90: 12.92 g a.i./ha
Eleusine indica
  GR50: 2.75 g a.i./ha
  GR90: 16.07 g a.i./ha
Portulaca oleracea
  GR50 (95% confidence interval): 7.56 (6.00-9.07) g a.i./ha
  GR90 (95% confidence interval): 35.74 (29.42-46.03) g a.i./ha
Corn (Sweet Corn); [2]
  Corn Growth Status: Good, Normal Growth
  Fresh Weight: 7.6 g
  Fresh Weight Control Efficacy: −2.0%
Corn (Sweet Corn); [3]
  Corn Growth Status: Good, Normal Growth
  Fresh Weight: 7.4 g
  Fresh Weight Control Efficacy: −0.3%
Corn (Sweet Corn); [4]
  Corn Growth Status: Good, Normal Growth
  Fresh Weight: 7.4 g
  Fresh Weight Control Efficacy: −0.3%
Corn (Sweet Corn); [5]
  Corn Growth Status: Good, Normal Growth
  Fresh Weight: 7.3 g
  Fresh Weight Control Efficacy: 1.0%
Corn (Sweet Corn); sweet corn, all dosages
  Safety to corn (in words): safe
Corn (White Waxy Corn); [6]
  Corn Growth Status: Good, Normal Growth
  Fresh Weight: 9.7 g
  Fresh Weight Control Efficacy: −2.7%
Corn (White Waxy Corn); [7]
  Corn Growth Status: Good, Normal Growth
  Fresh Weight: 9.4 g
  Fresh Weight Control Efficacy: 0.3%
Corn (White Waxy Corn); [8]
  Corn Growth Status: Good, Normal Growth
  Fresh Weight: 9.5 g
  Fresh Weight Control Efficacy: −0.3%
Corn (White Waxy Corn); [9]
  Corn Growth Status: Good, Normal Growth
  Fresh Weight: 9.0 g
  Fresh Weight Control Efficacy: 4.5%
Corn (White Waxy Corn); white waxy corn, highest dosage, 120 grams of active ingredient per hectare
  Growth of corn / phytotoxicity (in words): normal, without causing any phytotoxicity
Corn (Zhengdan 958); Zhengdan 958, all dosages
  Growth of corn / phytotoxicity (in words): normal
Corn (Zhengdan 958); [10]
  Corn Growth Status: Good, Normal Growth
  Fresh Weight: 15.2 g
  Fresh Weight Control Efficacy: −0.5%
Corn (Zhengdan 958); [11]
  Corn Growth Status: Good, Normal Growth
  Fresh Weight: 14.9 g
  Fresh Weight Control Efficacy: 1.8%
Corn (Zhengdan 958); [12]
  Corn Growth Status: Good, Normal Growth
  Fresh Weight: 15.2 g
  Fresh Weight Control Efficacy: −0.5%
Corn (Zhengdan 958); [13]
  Corn Growth Status: Good, Normal Growth
  Fresh Weight: 15.6 g
  Fresh Weight Control Efficacy: −2.8%

## COC(=O)OC(C)Oc1c(C(=O)c2ccc(S(C)(=O)=O)c(C3=NOCC3)c2C)cnn1C (stereo not drawn) [Compound I, 1-((4-(3-(4,5-dihydroisoxazol-3-yl)-2-methyl-4-(methylsulfonyl)benzoyl)-1-methyl-1H-pyrazol-5-yl)oxy)ethyl methyl carbonate]
[1]
  Visual observation of weeds: directly dried up and died
[1]; Abutilon theophrasti Medicago
  GR90 (95% confidence interval): 9.48 (4.30-13.21) g a.i./ha
[1]; Abutilon theophrasti medicus
  GR50 (95% confidence interval): 3.16 (0.37-5.92) g a.i./ha
Digitaria sanguinalis
  GR50: 10.92 g a.i./ha
  GR90: 35.88 g a.i./ha
Echinochloa crusgalli
  GR50: 6.03 g a.i./ha
  GR90: 11.04 g a.i./ha
Eleusine indica
  GR50: 2.71 g a.i./ha
  GR90: 14.85 g a.i./ha
Portulaca oleracea
  Control efficacy compared with Topramezone (in words): significantly better control efficacy
  Efficacy relative to that of Topramezone: approximately 3.8 times
  GR50 (95% confidence interval): 3.83 (2.36-5.16) g a.i./ha
  GR90 (95% confidence interval): 9.29 (7.46-10.81) g a.i./ha
Corn (Sweet Corn); in vivo
  Corn Growth Status: Good, Normal Growth
  Growth of corn / phytotoxicity (in words): normal, without causing any phytotoxicity
Corn (White Waxy Corn); in vivo
  Corn Growth Status: Good, Normal Growth
  Growth of corn / phytotoxicity (in words): normal, without causing any phytotoxicity
Corn (Zhengdan 958); in vivo
  Corn Growth Status: Good, Normal Growth
  Growth of corn / phytotoxicity (in words): normal, without causing any phytotoxicity

## Cc1c(C(=O)c2cnn(C)c2OC(=O)C(C)(C)C)ccc(S(C)(=O)=O)c1C1=NOCC1 [Compound II, 4-(3-(4,5-dihydroisoxazol-3-yl)-2-methyl-4-(methylsulfonyl)benzoyl)-1-methyl-1H-pyrazol-5-yl pivalate]
[1]
  Visual observation of weeds: directly dried up and died
[1]; Abutilon theophrasti Medicago
  GR50 (95% confidence interval): 1.19 (0.26-2.46) g a.i./ha
  GR90 (95% confidence interval): 7.90 (4.76-10.66) g a.i./ha
Digitaria sanguinalis
  GR50: 12.53 g a.i./ha
  GR90: 48.19 g a.i./ha
Echinochloa crusgalli
  GR50: 6.13 g a.i./ha
  GR90: 12.64 g a.i./ha
Eleusine indica
  GR50: 3.79 g a.i./ha
  GR90: 19.79 g a.i./ha
Portulaca oleracea
  Control efficacy compared with Topramezone (in words): slightly better control efficacy
  GR50 (95% confidence interval): 5.57 (4.07-7.00) g a.i./ha
  GR90 (95% confidence interval): 28.20 (23.41-35.73) g a.i./ha
Corn (Sweet Corn); in vivo
  Corn Growth Status: Good, Normal Growth
  Safety to corn (in words): safe
Corn (White Waxy Corn); in vivo
  Corn Growth Status: Good, Normal Growth
  Safety to corn (in words): safe
Corn (Zhengdan 958); in vivo
  Corn Growth Status: Good, Normal Growth
  Growth of corn / phytotoxicity (in words): normal, without causing any phytotoxicity
